This passage reports T/C results from PubChem BioAssay AID248 (DTP/NCI, 2004).

The subject of this assay is L1210 leukemia ip in BDF1 mice, survival T/C. Nature of the assay: NCI In Vivo Anticancer Drug Screen. Data for tumor model L1210 Leukemia (intraperitoneal) in B6D2F1 (BDF1) mice. Particulars: endpoint: mean survival time, higher = longer survival. In a few lines:
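Transplantable tumor model; survival measured in treated vs vehicle control mice. Value = treated/control.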

The mark [1] stands for this setting: dose: 100.0 mg/kg/injection, schedule: Q01DX001 (ip), vehicle: saline.
Setting [2] is: dose: 200.0 mg/kg/injection, schedule: Q01DX001 (ip), vehicle: saline.
The mark [3] stands for this setting: dose: 400.0 mg/kg/injection, schedule: Q01DX001 (ip), vehicle: saline.
[4] abbreviates: dose: 50.0 mg/kg/injection, schedule: Q01DX001 (ip), vehicle: carboxymethylcellulose (CMC).
The mark [5] stands for this setting: dose: 100.0 mg/kg/injection, schedule: Q01DX009 (ip), vehicle: Klucel (hydroxypropylcellulose) (HPC).
[6] abbreviates: dose: 100.0 mg/kg/injection, schedule: Q04DX003 (ip), vehicle: Klucel (hydroxypropylcellulose) (HPC).
[7] abbreviates: dose: 200.0 mg/kg/injection, schedule: Q01DX009 (ip), vehicle: Klucel (hydroxypropylcellulose) (HPC).
[8] abbreviates: dose: 200.0 mg/kg/injection, schedule: Q04DX003 (ip), vehicle: Klucel (hydroxypropylcellulose) (HPC).
Setting [9] is: dose: 400.0 mg/kg/injection, schedule: Q04DX003 (ip), vehicle: Klucel (hydroxypropylcellulose) (HPC).
[10] abbreviates: dose: 100.0 mg/kg/injection, schedule: Q04DX002 (ip), vehicle: saline with Tween-80.
Where [11] appears, read: dose: 200.0 mg/kg/injection, schedule: Q04DX002 (ip), vehicle: saline with Tween-80.
Where [12] appears, read: dose: 400.0 mg/kg/injection, schedule: Q04DX002 (ip), vehicle: saline with Tween-80.
Setting [13] is: dose: 50.0 mg/kg/injection, schedule: Q01DX009 (ip), vehicle: Klucel (hydroxypropylcellulose) (HPC).

“And” between values parts separate entries of the source, which are not always exact repeats. Equal entries are not always repeated. Toxic doses and inconclusive results are not listed.

As to `CCOC(=O)C(OCC)c1ccccc1` (stereo not given), the T/C reads like this: (dose: 100.0 mg/kg/injection, schedule: Q04DX003 (ip), vehicle: saline) 97 % of control; (dose: 200.0 mg/kg/injection, schedule: Q04DX003 (ip), vehicle: saline) 101 % of control; (dose: 400.0 mg/kg/injection, schedule: Q04DX003 (ip), vehicle: saline) 89 % of control.

For the compound `Cc1nc(N)c2nc(-c3ccc(N(CCCl)CCCl)cc3)c(N)nc2n1`, the T/C is, setting by setting: under setting [1], 96 % of control; under setting [2], 96 % of control; under setting [3], 96 % of control.

For `CC12CC3CC(C)(C1)CC(N)(C3)C2`, the T/C under setting [4] is 98 % of control.

In the case of `COC(=O)c1ccccc1N(Cc1ccc(OC)c(OC)c1)S(=O)(=O)c1ccc(C)cc1`, the T/C reads like this: under setting [1], 95 % of control; under setting [2], 91 % of control; under setting [3], 91 % of control.

On to `O=C(OCc1ccccc1)C(=O)OCc1ccccc1`, for which the T/C by setting is: under setting [5], 90 % of control; under setting [6], 95 % of control; under setting [7], 103 % of control; under setting [8], 100 % of control; under setting [9], 100 % of control.

Turning to `O=C1NC(=O)C(Cc2ccc(Cl)cc2)C(=O)N1`, the T/C by setting is: (dose: 100.0 mg/kg/injection, schedule: Q01DX009 (ip), vehicle: saline with Tween-80) 103 % of control; under setting [10], 93 % of control; (dose: 200.0 mg/kg/injection, schedule: Q01DX009 (ip), vehicle: saline with Tween-80) 98 % of control; under setting [11], 101 % of control; (dose: 400.0 mg/kg/injection, schedule: Q01DX009 (ip), vehicle: saline with Tween-80) 98 % of control; under setting [12], 101 % of control.

`CC1(C)COC(c2ccc3ccccc3c2)OC1`: the T/C reads like this: under setting [6], 96 % of control; under setting [8], 101 % of control; under setting [9], 100 % of control.

For the compound `CCCCNC(=O)Nc1ccc(Cl)cc1C(=O)c1ccccc1`, the T/C by setting is: (dose: 100.0 mg/kg/injection, schedule: Q04DX002 (ip), vehicle: Klucel (hydroxypropylcellulose) (HPC)) 105 % of control; (dose: 200.0 mg/kg/injection, schedule: Q04DX002 (ip), vehicle: Klucel (hydroxypropylcellulose) (HPC)) 102 % of control; (dose: 400.0 mg/kg/injection, schedule: Q04DX002 (ip), vehicle: Klucel (hydroxypropylcellulose) (HPC)) 94 % of control.

For the compound `O=S(=O)(Cl)c1cc(Cl)ccc1Cl`, the T/C is 95 % of control (dose: 25.0 mg/kg/injection, schedule: Q01DX009 (ip), vehicle: Klucel (hydroxypropylcellulose) (HPC)); 98 % of control under setting [13]; 97 % of control under setting [5].

As to `NC1CCCC[N-]1.NC1CCCC[N-]1.NC1CCCC[N-]1.[Cl][Cr]([Cl])[Cl]` (stereo not given), the T/C is, setting by setting: (dose: 18.75 mg/kg/injection, schedule: Q04DX003 (ip), vehicle: saline) 94 % of control; (dose: 37.5 mg/kg/injection, schedule: Q04DX003 (ip), vehicle: saline) 92 % of control; (dose: 75.0 mg/kg/injection, schedule: Q04DX003 (ip), vehicle: saline) 89 % of control.

Regarding `CC1CC(C(=O)O)Cc2c1nc1ccccc1c2C(=O)O` (stereo not given), the T/C runs as follows: under setting [10], 100 % of control; under setting [11], 93 % of control; under setting [12], 96 % of control.

`Cn1c(N)c(C(=O)CCCc2ccc(N(CCCl)CCCl)cc2)c(=O)n(C)c1=O`: the T/C under setting [4] is 102 % of control; the T/C (dose: 100.0 mg/kg/injection, schedule: Q01DX001 (ip), vehicle: carboxymethylcellulose (CMC)) was 107 % of control; the T/C (dose: 200.0 mg/kg/injection, schedule: Q01DX001 (ip), vehicle: carboxymethylcellulose (CMC)) is 105 % of control; the T/C (dose: 400.0 mg/kg/injection, schedule: Q01DX001 (ip), vehicle: carboxymethylcellulose (CMC)) is 102 % of control.

With `O=c1[nH]c2ccccc2[nH]1`, the T/C (dose: 12.5 mg/kg/injection, schedule: Q04DX002 (ip), vehicle: Klucel (hydroxypropylcellulose) (HPC)) is 90 % of control; the T/C (dose: 25.0 mg/kg/injection, schedule: Q04DX002 (ip), vehicle: Klucel (hydroxypropylcellulose) (HPC)) was 87 % of control; the T/C under setting [13] was 95 % of control; the T/C (dose: 50.0 mg/kg/injection, schedule: Q04DX002 (ip), vehicle: Klucel (hydroxypropylcellulose) (HPC)) was 90 % of control; the T/C (dose: 75.0 mg/kg/injection, schedule: Q01DX009 (ip), vehicle: Klucel (hydroxypropylcellulose) (HPC)) was 94 % of control; the T/C (dose: 115.0 mg/kg/injection, schedule: Q01DX009 (ip), vehicle: Klucel (hydroxypropylcellulose) (HPC)) was 97 % of control. Besides, the T/C (dose: 170.0 mg/kg/injection, schedule: Q01DX009 (ip), vehicle: Klucel (hydroxypropylcellulose) (HPC)) is 89 % of control.

`O=C1CCC(c2ccccc2)=NN1c1ccccc1`: the T/C was 96 % of control under setting [5]; 90 % of control under setting [7]; 96 % of control (dose: 400.0 mg/kg/injection, schedule: Q01DX009 (ip), vehicle: Klucel (hydroxypropylcellulose) (HPC)).

Take `Cc1c(O)c(Br)c(-c2c(C)c(Br)c(C)c([N+](=O)[O-])c2C)c(O)c1Br`: the T/C is 103 % of control (dose: 75.0 mg/kg/injection, schedule: Q04DX003 (ip), vehicle: Klucel (hydroxypropylcellulose) (HPC)); 93 % of control (dose: 150.0 mg/kg/injection, schedule: Q04DX003 (ip), vehicle: Klucel (hydroxypropylcellulose) (HPC)); 88 % of control (dose: 300.0 mg/kg/injection, schedule: Q04DX003 (ip), vehicle: Klucel (hydroxypropylcellulose) (HPC)).

For the compound `Cn1cnc([N+](=O)[O-])c1Sc1ncnc2nc[nH]c12`, the T/C is 109 % of control (dose: 8.0 mg/kg/injection, schedule: Q01DX Z (ip), vehicle: methylcellulose (MC)); 112 % of control (dose: 12.0 mg/kg/injection, schedule: Q01DX Z (ip), vehicle: methylcellulose (MC)); 117 % of control (dose: 17.0 mg/kg/injection, schedule: Q01DX Z (ip), vehicle: methylcellulose (MC)); 104 % of control (dose: 25.0 mg/kg/injection, schedule: Q01DX Z (ip), vehicle: methylcellulose (MC)); 124 % of control (dose: 62.0 mg/kg/injection, schedule: Q01DX001 (ip), vehicle: carboxymethylcellulose (CMC)); 150 % of control (dose: 250.0 mg/kg/injection, schedule: Q01DX001 (ip), vehicle: carboxymethylcellulose (CMC)). In addition, the T/C (dose: 500.0 mg/kg/injection, schedule: Q01DX001 (ip), vehicle: carboxymethylcellulose (CMC)) was 165 % of control.

On to `N#CC(C#N)=CNc1ccc(S(N)(=O)=O)cc1`, for which the T/C was 101 % of control (dose: 75.0 mg/kg/injection, schedule: Q01DX001 (ip), vehicle: saline); 95 % of control (dose: 150.0 mg/kg/injection, schedule: Q01DX001 (ip), vehicle: saline); 96 % of control (dose: 300.0 mg/kg/injection, schedule: Q01DX001 (ip), vehicle: saline).

For the compound `O=c1cc(-c2ccccc2)c2ccc(O)cc2o1`, the T/C is 95 % of control (dose: 100.0 mg/kg/injection, schedule: Q04DX003 (ip), vehicle: saline with Tween-80); 101 % of control (dose: 200.0 mg/kg/injection, schedule: Q04DX003 (ip), vehicle: saline with Tween-80); 93 % of control (dose: 400.0 mg/kg/injection, schedule: Q04DX003 (ip), vehicle: saline with Tween-80).

For the compound `CC(CCC(=O)O)(NC(=O)c1ccc(NCc2ccc3nc(N)nc(N)c3c2)cc1)C(=O)O` (stereo not given), the T/C is 150 % of control (dose: 0.5 mg/kg/injection, schedule: Q01DX009 (ip), vehicle: saline); 163 % of control and 176 % of control (dose: 1.0 mg/kg/injection, schedule: Q01DX009 (ip), vehicle: saline); 163 % of control (dose: 4.0 mg/kg/injection, schedule: Q01DX009 (ip), vehicle: saline); 112 % of control (dose: 8.0 mg/kg/injection, schedule: Q01DX009 (ip), vehicle: saline); 115 % of control (dose: 8.0 mg/kg/injection, schedule: Q04DX003 (ip), vehicle: saline); 102 % of control (dose: 16.0 mg/kg/injection, schedule: Q01DX009 (ip), vehicle: saline). Moreover, the T/C by setting is: (dose: 16.0 mg/kg/injection, schedule: Q04DX003 (ip), vehicle: saline) 123 % of control; (dose: 64.0 mg/kg/injection, schedule: Q04DX003 (ip), vehicle: saline) 115 % of control; (dose: 128.0 mg/kg/injection, schedule: Q04DX003 (ip), vehicle: saline) 99 % of control.
